According to publication PMC4337820 (Journal of medicinal chemistry, 2015):
Read-outs that look alike come from different tables or passages of the source.

Tests used:
[1] = tested on: Chagas disease; conditions: cited from earlier work; for cure rates, chronic stage: adults in the chronic stage
[2] = tested on: T. cruzi, strain Tulahuen C4 amastigotes; assay: In vitro activity against T. cruzi amastigotes; type: cell-based; conditions: for antichagasic activity class (TDR criteria): T. cruzi amastigotes; for Bnz/comp: fold potency against T. cruzi relative to Bnz; for SI (IC50 in L6 cells/IC50 in T. cruzi): selectivity index vs L6 cells
[3] = tested on: T.b. rhodesiense, strain STIB 900 trypomastigotes; assay: In vitro activity against T. b. rhodesiense; type: cell-based; conditions: for anti-HAT activity class (TDR criteria): BSF T. b. rhodesiense
[4] = Caco-2 monolayer permeability; type: in vitro ADME; conditions: human, Caco-2
[5] = tested on: T.b. rhodesiense, strain STIB 900 trypomastigotes; conditions: cited from earlier work
[6] = tested on: T. cruzi, strain Tulahuen C4 amastigotes; conditions: cited from earlier work
[7] = tested on: L6 cells (rat skeletal myoblasts); conditions: read-out: Cytotox. L6 IC-50; host L6 cells; cited from earlier work
[8] = polar surface area, predicted; cited from earlier work
[9] = tested on: transgenic T. cruzi parasites expressing firefly luciferase; assay: In vivo antichagasic activity, acute T. cruzi infected murine model; conditions: i.p., 15 mg/kg/day (compound 5: 13 mg/kg/day)
[10] = tested on: L6 cells (rat skeletal myoblasts); assay: Cytotoxicity in host L6 cells; type: cell-based
[11] = molecular target: T1, T. cruzi CYP51 (Trypanosoma cruzi, UniProt Q7Z1V1); assay: Spectral titration binding to T. cruzi CYP51; conditions: TcCYP51 spectral response
T1 sequence (Q7Z1V1 whole entry): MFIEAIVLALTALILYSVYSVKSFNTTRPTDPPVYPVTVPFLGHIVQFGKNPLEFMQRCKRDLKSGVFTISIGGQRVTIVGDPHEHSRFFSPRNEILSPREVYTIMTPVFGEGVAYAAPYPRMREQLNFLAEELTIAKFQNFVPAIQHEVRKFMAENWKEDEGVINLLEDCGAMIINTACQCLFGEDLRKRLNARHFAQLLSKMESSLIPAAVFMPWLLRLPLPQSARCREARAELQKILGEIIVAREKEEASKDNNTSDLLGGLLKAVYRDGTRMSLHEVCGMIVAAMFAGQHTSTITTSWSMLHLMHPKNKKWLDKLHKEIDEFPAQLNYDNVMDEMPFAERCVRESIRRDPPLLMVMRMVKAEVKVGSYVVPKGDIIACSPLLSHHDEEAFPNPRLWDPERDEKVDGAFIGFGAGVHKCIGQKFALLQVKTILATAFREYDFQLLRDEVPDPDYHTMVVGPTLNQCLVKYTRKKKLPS

[12] = molecular target: T1, T. cruzi CYP51; assay: Reconstituted CYP51 reaction inhibition; type: biochemical; conditions: compound 19: at high I/E ratios (≥ 20)
[13] = tested on: Caco-2 cells; assay: Caco-2 monolayer permeability; type: in vitro ADME; conditions: 10 μM, 2 h
[14] = tested on: blood stream form T. b. brucei parasites overexpressing TbNTR; assay: Susceptibility of blood stream form T. b. brucei with or without elevated TbNTR; type: cell-based
[15] = read-out: T.b.rhod. IC-50, strain STIB 900 trypomastigotes
[16] = read-out: T.cruzi IC-50, strain Tulahuen C4 amastigotes

CC[C@@H]([C@H](C)O)n1ncn(-c2ccc(N3CCN(c4ccc(OC[C@@H]5CO[C@@](Cn6cncn6)(c6ccc(F)cc6F)C5)cc4)CC3)cc2)c1=O [posaconazole]
treatment failure ([1]; clinical trials, human patients with chronic Chagas disease): ~80%

CC(O)(Cn1cnc([N+](=O)[O-])n1)c1ccc(-n2ccnc2)cc1 (stereo not shown) [Compound 14, 2-[4-(1H-imidazol-1-yl)phenyl]-1-(3-nitro-1H-1,2,4-triazol-1-yl)propan-2-ol]
fold less potent against T. cruzi than 17 [2]: 32 fold
antichagasic activity class (TDR criteria) [2]: active
Bnz/comp [2]: 0.68

O=C(Cn1cnc([N+](=O)[O-])n1)Nc1nnc(-c2ccc(Cl)cc2)s1 [Compound 4, N-[5-(4-chlorophenyl)-1,3,4-thiadiazol-2-yl]-2-(3-nitro-1H-1,2,4-triazol-1-yl) acetamide]
anti-HAT activity class (TDR criteria) [3]: did not show any anti-HAT activity
Bnz/comp [2]: 0.04

O=C(Cn1cnc([N+](=O)[O-])n1)c1ccc(F)cc1F [Compound 10, 1-(2,4-difluorophenyl)-2-(3-nitro-1H-1,2,4-triazol-1-yl)ethan-1-one]
antichagasic activity class (TDR criteria) [2]: active
Bnz/comp [2]: 1.29

CNC(=C[N+](=O)[O-])NCCSCc1ccc(CN(C)C)o1 [Ranitidine, reference compound]
Papp A→B at 2 h, 10 µM [4]: 0.24 ×10⁻⁶ cm/s

CC(O)(Cn1cncn1)c1ccc(-c2ccccc2)cc1 (stereo not shown) [Compound 16, 2-(4-phenylphenyl)-1-(1H-1,2,4-triazol-1-yl)propan-2-ol]
anti-HAT activity class (TDR criteria) [3]: inactive
fold less potent against T. cruzi than 17 [2]: 7 fold
antichagasic activity class (TDR criteria) [2]: active
Bnz/comp [2]: 3.17

CC(O)(Cn1cncn1)c1ccc(-n2ccnc2)cc1 (stereo not shown) [Compound 15, 2-[4-(1H-imidazol-1-yl)phenyl]-1-(1H-1,2,4-triazol-1-yl)propan-2-ol]
anti-HAT activity class (TDR criteria) [3]: inactive

Nc1nc(N)nc(Nc2ccc([As]3SCC(CO)S3)cc2)n1 (stereo not shown) [Melars., Melarsoprol, reference compound]
IC50 ([3]; Trypanosoma brucei, RHODESIENSE|STIB900, read-out: T.b.rhod. IC-50): 7 ± 1 nM

O=C(Cn1ccnc1[N+](=O)[O-])Nc1nc(-c2ccc(F)c(F)c2)cs1 [Compound 7, N-(4-(3,4-difluorophenyl)thiazol-2-yl)-2-(2-nitro-1H-imidazol-1-yl)acetamide]
anti-HAT activity class (TDR criteria) [3]: inactive
fold less active against T. cruzi compared to 6 [2]: about 8.7 fold
antichagasic activity class (TDR criteria) [2]: borderline active
Bnz/comp [2]: 0.51

O=C(Cn1cnc([N+](=O)[O-])n1)Nc1ccc(N2CCCCC2)cc1 [Compound 9, 2-(3-nitro-1H-1,2,4-triazol-1-yl)-N-(4-(piperidin-1-yl)phenyl)acetamide]
anti-HAT activity class (TDR criteria) [3]: inactive
antichagasic activity class (TDR criteria) [2]: active
Bnz/comp [2]: 3.66

O=C(Cn1ccnc1[N+](=O)[O-])NCc1ccccc1 [Bnz, N-benzyl-2-(2-nitro-1H-imidazol-1-yl)acetamide]
cure rates, acute phase ([1]; acute phase of Chagas disease): 65-80%
cure rates, chronic stage [1]: 15-30%

CC1CS(=O)(=O)CCN1/N=C/c1ccc([N+](=O)[O-])o1 (stereo not shown) [Nfx, 4-(5-nitrofurfurylindenamino)-3-methylthio-morpholine-1,1-dioxide]
cure rates, chronic stage [1]: 15-30%

Cc1nc(-c2cccc(NC(=O)Cn3cnc([N+](=O)[O-])n3)c2)cs1 [Compound 8, N-(3-(2-methylthiazol-4-yl)phenyl)-2-(3-nitro-1H-1,2,4-triazol-1-yl)acetamide]
antichagasic activity class (TDR criteria) [2]: active
Bnz/comp [2]: 3.67

CC(O)(Cn1cnc([N+](=O)[O-])n1)c1ccc(-c2ccccc2)cc1 (stereo not shown) [Compound 17, 1-(3-nitro-1H-1,2,4-triazol-1-yl)-2-(4-phenylphenyl)propan-2-ol]
Bnz/comp [2]: 21.94

O=[N+]([O-])c1ncn(CCCNS(=O)(=O)c2ccc(Cl)s2)n1 [Compound 23]
IC50 [5, 15]: 1990 nM
SI (IC50 in L6 cells/IC50 in T.b. rhodesiense) ([5]; selectivity index vs L6 cells): 122
Bnz/comp ([6]; fold potency against T. cruzi relative to Bnz): 3.6
IC50 [6, 16]: 438 nM
SI (IC50 in L6 cells/IC50 in T. cruzi) ([6]; selectivity index vs L6 cells): 556
IC50 [7]: 244 µM
PSA [8]: 122.7 Å^2

O=C(Cn1cnc([N+](=O)[O-])n1)Nc1nc(-c2ccc(Cl)cc2)cs1 [Compound 3, N-[4-(4-chlorophenyl)-1,3-thiazol-2-yl]-2-(3-nitro-1H-1,2,4-triazol-1-yl)acetamide]
antichagasic activity class (TDR criteria) [2]: active
Bnz/comp [2]: 7.24

O=[N+]([O-])c1ncn(CC(O)(Cn2cncn2)c2ccc(F)cc2F)n1 (stereo not shown) [Compound 18, 2-(2,4-difluorophenyl)-1-(3-nitro-1H-1,2,4-triazol-1-yl)-3-(1H-1,2,4-triazol-1-yl)-propan-2-ol]
fold less potent against T. cruzi than 19 [2]: 36 fold
fold more potent against T. cruzi than fluconazole [2]: 8.5 fold
Bnz/comp [2]: 1.81

O=C(Cn1cnc([N+](=O)[O-])n1)Nc1ccc(-c2ccc(Cl)cc2)cc1 [Compound 5, N-(4′-chloro-[1,1′-biphenyl]-4-yl)-2-(3-nitro-1H-1,2,4-triazol-1-yl)acetamide]
factor of increased efficacy against T. cruzi compared to analog 2 [2]: 3 fold
parasite levels after 5 days of treatment [9]: undetectable levels

1-(4-phenylphenyl)-2-(1H-1,2,4-triazol-1-yl)ethan-1-one [Compound 11]
IC50 [3, 15]: 1750 nM
SI (IC50 in L6 cells/IC50 in T.b. rhodesiense) ([3]; selectivity index vs L6 cells): 125
antichagasic activity class (TDR criteria) [2]: active
Bnz/comp [2]: 11.9
IC50 [2, 16]: 188 nM
SI (IC50 in L6 cells/IC50 in T. cruzi) [2]: 1164
IC50 [10]: 220 µM

Cc1ccc(S(=O)(=O)NC(Cc2ccccc2)Cn2cnc([N+](=O)[O-])n2)cc1 (stereo not shown) [Compound 21, 4-Methyl-N-[1-(3-nitro-1H-1,2,4-triazol-1-yl)-3-phenylpropan-2-yl]benzene-1-sulfonamide]
fold less potent against T. cruzi than 17 [2]: about 3 fold
antichagasic activity class (TDR criteria) [2]: active
Bnz/comp [2]: 1.7

O=[N+]([O-])c1ncn(CC(O)(Cn2cncn2)c2ccc(-c3ccccc3)cc2)n1 (stereo not shown) [Compound 19, 1-(3-nitro-1H-1,2,4-triazol-1-yl)-2-(4-phenylphenyl)-3-(1H-1,2,4-triazol-1-yl)propan-2-ol]
apparent Kd, fold stronger than fluconazole [11]: 10 fold
reversibility of TcCYP51 inhibition [12]: irreversible
Caco 2 permeability ranking [13]: high

O=C(Cn1cnc([N+](=O)[O-])n1)Nc1nc(-c2ccc(F)c(F)c2)cs1 [Compound 6, N-(4-(3,4-difluorophenyl)thiazol-2-yl)-2-(3-nitro-1H-1,2,4-triazol-1-yl)acetamide]
anti-HAT activity class (TDR criteria) [3]: inactive
antichagasic activity class (TDR criteria) [2]: active
Bnz/comp [2]: 4.42

N#Cc1ccc(-c2ccc(NC(=O)Cn3cnc([N+](=O)[O-])n3)cc2)cc1 [Compound 2, N-[4-(4-cyanophenyl)phenyl]-2-(3-nitro-1H-1,2,4-triazol-1-yl)acetamide]
anti-HAT activity class (TDR criteria) [3]: active
Bnz/comp [2]: 10.77
fold more susceptible, TbNTR-overexpressing vs non-induced parasites [14]: 2 to 3 fold
reversibility of TcCYP51 inhibition [12]: reversible
Caco 2 permeability ranking [13]: high
parasite levels after 5 days of treatment [9]: undetectable levels

Fc1ccc(C2(Cn3cncn3)Cn3ccnc3O2)c(F)c1 (stereo not shown) [Compound 20, 1-{[2-(2,4-difluorophenyl)-2H,3H-imidazo[2,1-b][1,3]oxazol-2-yl]methyl}-1H-1,2,4-triazole]
fold less potent against T. cruzi than 18 [2]: about 5 fold
Bnz/comp [2]: 0.35
SI (IC50 in L6 cells/IC50 in T. cruzi) [2]: >49.4
